We go through eight molecules from ChEMBL document CHEMBL5303573, “Mapping human microbiome drug metabolism by gut bacteria and their genes” (Nature, 2019).

A short description of data set [1]: The drug is tested on Bifidobacterium breve strain: DSM20213 for biotransformation. The drug concentrations were measured before and after a 12-h incubation by liquid-chromatography-coupled mass spectrometry (LC–MS). The conditions noted are these: 2 µM.
A short description of data set [2]: The drug is tested on Bacteroides coprophilus strain: DSM18228 for biotransformation. The drug concentrations were measured before and after a 12-h incubation by liquid-chromatography-coupled mass spectrometry (LC–MS). Particulars: 2 µM.
Data set [3] can be described thus: The drug is tested on Bacteroides fragilis strain: HMW615 for biotransformation. The drug concentrations were measured before and after a 12-h incubation by liquid-chromatography-coupled mass spectrometry (LC–MS). The conditions noted are these: 2 µM.
Data set [4] can be described thus: The drug is tested on Bacteroides uniformis strain: ATCC8492 for biotransformation. The drug concentrations were measured before and after a 12-h incubation by liquid-chromatography-coupled mass spectrometry (LC–MS). Particulars: 2 µM.
The nature of data set [5]: The drug is tested on Bacteroides sp. WH2 strain: WH2 for biotransformation. The drug concentrations were measured before and after a 12-h incubation by liquid-chromatography-coupled mass spectrometry (LC–MS). The conditions noted are these: bacteroides sp. wh2, 12 h, 2 µM.
Data set [6] can be described thus: The drug is tested on Odoribacter splanchnicus strain: fecal isolate for biotransformation. The drug concentrations were measured before and after a 12-h incubation by liquid-chromatography-coupled mass spectrometry (LC–MS). Particulars: 2 µM.
The nature of data set [7]: The drug is tested on Anaerococcus hydrogenalis strain: DSM7454 for biotransformation. The drug concentrations were measured before and after a 12-h incubation by liquid-chromatography-coupled mass spectrometry (LC–MS). Particulars: 2 µM.
The nature of data set [8]: The drug is tested on Enterococcus faecalis strain: V583 for biotransformation. The drug concentrations were measured before and after a 12-h incubation by liquid-chromatography-coupled mass spectrometry (LC–MS). The conditions noted are these: 2 µM.
Data set [9] is described as follows: The drug is tested on Eubacterium hallii strain: DSM3353 for biotransformation. The drug concentrations were measured before and after a 12-h incubation by liquid-chromatography-coupled mass spectrometry (LC–MS). The conditions noted are these: anaerobutyricum hallii, 2 µM.
A short description of data set [10]: The drug is tested on Edwardsiella tarda strain: ATCC23685 for biotransformation. The drug concentrations were measured before and after a 12-h incubation by liquid-chromatography-coupled mass spectrometry (LC–MS). The conditions noted are these: 2 µM.
The conditions of data set [11]: bacteroides eggerthii, 12 h, 2 µM.
For data set [12] the following is noted: bacteroides fragilis, 12 h, 2 µM.
For data set [13] the following is noted: parabacteroides distasonis, 12 h, 2 µM.
For data set [14] the following is noted: limosilactobacillus reuteri cf48-3a, 12 h, 2 µM.
A short description of data set [15]: The drug is tested on Bacteroides dorei strain: DSM17855 for biotransformation. The drug concentrations were measured before and after a 12-h incubation by liquid-chromatography-coupled mass spectrometry (LC–MS). The conditions noted are these: phocaeicola dorei, 2 µM.
Data set [16] in a line: The drug is tested on Clostridium symbiosum strain: ATCC14940 for biotransformation. The drug concentrations were measured before and after a 12-h incubation by liquid-chromatography-coupled mass spectrometry (LC–MS). Particulars: 2 µM.
A short description of data set [17]: The drug is tested on Eubacterium rectale strain: ATCC33656 for biotransformation. The drug concentrations were measured before and after a 12-h incubation by liquid-chromatography-coupled mass spectrometry (LC–MS). Particulars: agathobacter rectalis, 2 µM.
Data set [18] can be described thus: The drug is tested on Escherichia coli strain: BW25113 for biotransformation. The drug concentrations were measured before and after a 12-h incubation by liquid-chromatography-coupled mass spectrometry (LC–MS). The conditions noted are these: 2 µM.

For the molecule `COc1ccc(CCN(C)CCCC(C#N)(c2ccc(OC)c(OC)c2)C(C)C)cc1OC` (configuration not stated), the “Bacterial Biotransformation” value in data set [1] is given as “Compound NOT metabolized”; in data set [2], “Compound NOT metabolized”; in data set [3], “Compound NOT metabolized”; in [4] it was “Compound metabolized”; in data set [5], “Compound NOT metabolized”; in [6], “Compound metabolized”. For the same molecule, the “Bacterial Biotransformation” value is on record as “Compound NOT metabolized” in [7]; “Compound NOT metabolized” in data set [8]; “Compound metabolized” in data set [9]; “Compound NOT metabolized” in data set [10]; “Compound NOT metabolized” in data set [11]; “Compound NOT metabolized” in [12]. The figures for the “Bacterial Biotransformation” value in [13] and in data set [14] were “Compound metabolized” and “Compound NOT metabolized”, respectively.

For `O=C1CC2(CCCC2)CC(=O)N1CCCCN1CCN(c2ncccn2)CC1` [BUSPIRONE], the “Bacterial Biotransformation” value in data set [2], in data set [15], in data set [3], in data set [4], in data set [5] and in data set [7] was “Compound NOT metabolized” each time. The “Bacterial Biotransformation” value in data set [16], in data set [8], in [9], in [17], in data set [10] and in data set [11] was “Compound NOT metabolized” throughout. Besides, the “Bacterial Biotransformation” value in [12], in data set [13] and in data set [14] was “Compound NOT metabolized” each time.

`CCN(C(C)=O)c1cccc(-c2ccnc3c(C#N)cnn23)c1` [ZALEPLON]: the “Bacterial Biotransformation” value in data set [1] is given as “Compound NOT metabolized”; in data set [2], “Compound NOT metabolized”; in data set [15] it was “Compound metabolized”; in data set [3] it was “Compound metabolized”; in data set [4] it was “Compound metabolized”; in [6], “Compound NOT metabolized”. In addition, the “Bacterial Biotransformation” value in data set [7], in [16], in data set [8], in [9], in data set [18] and in [11] was “Compound NOT metabolized” throughout. Besides, the results for the “Bacterial Biotransformation” value in data set [12] and in data set [13] were “Compound metabolized” and “Compound NOT metabolized”, respectively.

For `CCOC(=O)C1=C[C@]2(CC)CCCN3CCc4c(n1c1ccccc41)[C@@H]32` [VINPOCETINE], the “Bacterial Biotransformation” value in data set [1], in data set [2], in [3], in [5], in [6] and in data set [7] was “Compound NOT metabolized” in each case. The “Bacterial Biotransformation” value in data set [16], in [8], in data set [9], in data set [17], in data set [10] and in data set [18] was “Compound NOT metabolized” each time. In addition, the “Bacterial Biotransformation” value in [11], in [12] and in [14] was “Compound NOT metabolized” each time.

Turning to `O=C1N=C([O-])NC1(c1ccccc1)c1ccccc1.[Na+]` [PHENYTOIN SODIUM], the “Bacterial Biotransformation” value in data set [1] is recorded as “Compound NOT metabolized”; in data set [2] it was “Compound metabolized”; in [15], “Compound metabolized”; in [3] it was “Compound NOT metabolized”; in [4] it was “Compound metabolized”; in data set [5], “Compound metabolized”. The “Bacterial Biotransformation” value in data set [6] is reported as “Compound metabolized”; in data set [7] it was “Compound NOT metabolized”; in [16], “Compound metabolized”; in [8], “Compound NOT metabolized”; in data set [9], “Compound NOT metabolized”; in data set [18], “Compound NOT metabolized”. Moreover, the “Bacterial Biotransformation” value in [12] was “Compound metabolized”; in [13], “Compound metabolized”; in [14] it was “Compound NOT metabolized”.

In the case of `CN(CCOc1ccc(CC2SC(=O)NC2=O)cc1)c1ccccn1.O=C(O)/C=C\C(=O)O` (configuration not stated) [ROSIGLITAZONE MALEATE], the “Bacterial Biotransformation” value in [1], in data set [2], in [15], in data set [4], in [5] and in data set [6] was “Compound NOT metabolized” throughout. The “Bacterial Biotransformation” value in [7], in data set [16], in data set [8], in data set [9], in data set [10] and in [11] was “Compound NOT metabolized” throughout. In addition, the “Bacterial Biotransformation” value in data set [12], in [13] and in data set [14] was “Compound NOT metabolized” in each case.

In the case of `COC1=CC(=O)C[C@@H](C)[C@]12Oc1c(Cl)c(OC)cc(OC)c1C2=O` [GRISEOFULVIN], the “Bacterial Biotransformation” value in [15] is “Compound metabolized”; in data set [3] it was “Compound metabolized”; in data set [4] it was “Compound metabolized”; in [5] it was “Compound NOT metabolized”; in [7], “Compound NOT metabolized”; in [16], “Compound NOT metabolized”. For the same molecule, the “Bacterial Biotransformation” value is “Compound NOT metabolized” in data set [8]; “Compound NOT metabolized” in data set [9]; “Compound NOT metabolized” in [17]; “Compound NOT metabolized” in data set [10]; “Compound metabolized” in data set [11]; “Compound metabolized” in data set [12]. Besides, the “Bacterial Biotransformation” value was “Compound metabolized” in data set [13] and “Compound NOT metabolized” in data set [14].

For `Br.CN1CCC[C@@H]1Cc1c[nH]c2ccc(CCS(=O)(=O)c3ccccc3)cc12` [ELETRIPTAN HYDROBROMIDE], the “Bacterial Biotransformation” value in [2], in [15], in data set [4], in data set [5], in data set [6] and in data set [7] was “Compound NOT metabolized” each time. The “Bacterial Biotransformation” value in [16], in [8], in data set [9], in data set [17], in [10] and in data set [11] was “Compound NOT metabolized” in each case. Besides, the “Bacterial Biotransformation” value in [12], in [13] and in [14] was “Compound NOT metabolized” each time.
